Measured values taken from patent US20250268826A1, “IONIZABLE LIPIDOID COMPOSITIONS AND THERAPEUTIC USES THEREOF” (Flagship Pioneering Innovations VII, LLC, priority 2023, published 2025).
One block for each compound: values may come before it.

Tests used:
Assay type in all cases: physicochemical
[1] = LNP size and polydispersity index (PDI) by dynamic light scattering (DLS)
[2] = LNP Zeta potential measured using a Zetasizer (Malvern); settings: for Zeta potential: hEPO mRNA, N:P 6; for Zeta potential (mV): LNP with hEPO mRNA, N:P ratio 6
[3] = Encapsulation efficiency (EE %) by fluorescence based Ribogreen assay
[4] = Table 1, LNP lipid:DSPC:Cholesterol:DMG-PEG2k 50:10:38.5:1.5 mol %, hEPO mRNA, N:P 6
[5] = Table 1, LNP lipid:DSPC:Cholesterol:DMG-PEG2k 50:10:38.5:1.5 mol %
[6] = Table 5, LNP 50:10:38.5:1.5 mol %, hEPO mRNA, N:P 6
[7] = Table 5, LNP Lipid:DSPC:Cholesterol:DMG-PEG2k 50:10:38.5:1.5 mol %, hEPO mRNA, N:P 6
[8] = Table 5, LNP 50:10:38.5:1.5 mol %
[9] = Table 9, LNP 50:10:38.5:1.5 mol %, hEPO mRNA, N:P 6
[10] = Table 9, LNP Lipid:DSPC:Cholesterol:DMG-PEG2k 50:10:38.5:1.5 mol %, hEPO mRNA, N:P 6
[11] = Table 9, LNP 50:10:38.5:1.5 mol %
[12] = Table 6, LNP 50:10:38.5:1.5 mol %, hEPO mRNA, N:P 6
[13] = Table 6, LNP 60:0:38.5:1.5 mol %, hEPO mRNA, N:P 6
[14] = Table 11, LNP with hEPO mRNA, Lipid:DSPC:Cholesterol:DMG-PEG2k 50:10:38.5:1.5 mol % (ALC-0315: 46.3:9.4:42.7:1.6), N:P ratio 6, HEPES/sodium chloride/sucrose buffer, stored at −80C
[15] = Table 11, Lipid:DSPC:Cholesterol:DMG-PEG2k 50:10:38.5:1.5 mol % (ALC-0315: 46.3:9.4:42.7:1.6), HEPES/sodium chloride/sucrose buffer, stored at −80C
[16] = Table 10, LNP with hEPO mRNA, Lipid:DSPC:Cholesterol:DMG-PEG2k 50:10:38.5:1.5 mol %, N:P ratio 6, DLS
[17] = Table 8, LNP 50:10:38.5:1.5 mol %, hEPO mRNA, N:P 6
[18] = Table 5, LNP 60:0:38.5:1.5 mol %, hEPO mRNA, N:P 6

PDI [1, 4]: 0.291
Size [1, 4]: 70.8 nm
Zeta potential [2, 5]: −2.403 mV
Encapsulation Efficiency % [3, 4]: 89.5%
SMILES: CCCCCCCCCCCC(=O)OCCN(CCOC(=O)CCCCCCCCCCC)C(=O)C(N)Cc1ccccc1 (centres unmarked) [Compound 115]

PDI [1, 6]: 0.457
Size [1, 7]: 57.2 nm
Zeta potential [2, 8]: −2.662 mV
Encapsulation Efficiency % [3, 6]: 99.9%
SMILES: CCCCCCCCCCCCC(CC)C(=O)OCCN(CCOC(=O)C(CC)CCCCCCCCCCCC)C(=O)CN (centres unmarked) [Compound 606]

PDI [1, 9]: 0.317
Size [1, 10]: 73.9 nm
Zeta potential [2, 11]: −26.13 mV
Encapsulation Efficiency % [3, 9]: 99.3%
SMILES: CCCCCCCCC(CCCCCC)C(=O)OCCN(CCOC(=O)C(CCCCCC)CCCCCCCC)C(=O)CNC.Cl (centres unmarked) [Compound 964]

PDI [1, 12]: 0.126
PDI [1, 13]: 0.079
Size [1, 13]: 114.7 nm
Size ([1]; Table 6, LNP lipid:DSPC:Cholesterol:DMG-PEG2k 50:10:38.5:1.5 mol %, hEPO mRNA, N:P 6): 77.7 nm
Zeta potential ([2]; Table 6, LNP 50:10:38.5:1.5 mol %): −1.9 mV
Zeta potential ([2]; Table 6, LNP 60:0:38.5:1.5 mol %): −0.6 mV
Encapsulation Efficiency % [3, 12]: 98.3%
Encapsulation Efficiency % [3, 13]: 99.7%
SMILES: CCCCCCCCC(CCCCCC)C(=O)OCCN(CCOC(=O)C(CCCCCC)CCCCCCCC)C(=O)CCCN(C)C (centres unmarked) [Compound 807]

PDI [1, 14]: 0.121
Size (nm) [1, 14]: 57.4 nm
Zeta potential (mV) [2, 15]: −4.1 mV
Encapsulation Efficiency % [3, 14]: 90.2%
SMILES: CCCCCCCCC(CCCCCC)C(=O)OCCN(CCOC(=O)C(CCCCCC)CCCCCCCC)C(=O)C(C)CCN(CCCC)CCCC.Cl (centres unmarked) [Compound 987o]

PDI [1, 14]: 0.092
Size (nm) [1, 14]: 62.9 nm
Zeta potential (mV) [2, 15]: −1.5 mV
Encapsulation Efficiency % [3, 14]: 99.2%
SMILES: CCCCCCCCC(CCCCCC)C(=O)OCCN(CCOC(=O)C(CCCCCC)CCCCCCCC)C(=O)C(C)CCNC.Cl (centres unmarked) [Compound 987d]

PDI [1, 16]: 0.314
Size (nm) [1, 16]: 51.5 nm
Zeta potential (mV) ([2]; Table 10, Lipid:DSPC:Cholesterol:DMG-PEG2k 50:10:38.5:1.5 mol %): −11.1 mV
Encapsulation Efficiency % ([3]; Table 10, LNP with hEPO mRNA, Lipid:DSPC:Cholesterol:DMG-PEG2k 50:10:38.5:1.5 mol %, N:P ratio 6, Ribogreen assay): 91.9%
SMILES: CCCCCCCCCC(CCCCCCCCC)C(=O)OCCN(CCOC(=O)C(CCCCCCCCC)CCCCCCCCC)C(=O)CCN(CC)CC [Compound 917f]

PDI [1, 9]: 0.125
Size [1, 10]: 77.4 nm
Zeta potential [2, 11]: −28.49 mV
Encapsulation Efficiency % [3, 9]: 99.7%
SMILES: CCCCCCCCC(CCCCCC)C(=O)OCCN(CCOC(=O)C(CCCCCC)CCCCCCCC)C(=O)CN(CC)CCC.Cl (single isomer, unassigned) [Compound 960a]

PDI [1, 17]: 0.204
Size ([1]; Table 8, LNP Lipid:DSPC:Cholesterol:DMG-PEG2k 50:10:38.5:1.5 mol %, hEPO mRNA, N:P 6): 70.4 nm
Zeta potential ([2]; Table 8, LNP 50:10:38.5:1.5 mol %): −2.9 mV
Encapsulation Efficiency % [3, 17]: 100%
SMILES: CCCCCCCCC(CCCCCC)C(=O)OCCN(CCOC(=O)C(CCCCCC)CCCCCCCC)C(=O)CCNCC.Cl (centres unmarked) [Compound 905]

PDI [1, 14]: 0.101
Size (nm) [1, 14]: 76.6 nm
Zeta potential (mV) [2, 15]: −4.4 mV
Encapsulation Efficiency % [3, 14]: 95.7%
SMILES: CCCCCCCCC(CCCCCC)C(=O)OCCN(CCOC(=O)C(CCCCCC)CCCCCCCC)C(=O)C(C)CCN(CC)CCC.Cl (centres unmarked) [Compound 987j]

PDI [1, 4]: 0.441
Size [1, 4]: 74.7 nm
Zeta potential [2, 5]: −2.361 mV
Encapsulation Efficiency % [3, 4]: 94.4%
SMILES: CCCCCCCCCC(=O)OCCN(CCOC(=O)CCCCCCCCC)C(=O)CN [Compound 104]

PDI [1, 6]: 0.304
PDI [1, 18]: 0.116
Size [1, 18]: 211.9 nm
Size [1, 7]: 53.9 nm
Zeta potential [2, 8]: −13.69 mV
Zeta potential ([2]; Table 5, LNP 60:0:38.5:1.5 mol %): −17.91 mV
Encapsulation Efficiency % [3, 6]: 97.9%
Encapsulation Efficiency % [3, 18]: 92.8%
SMILES: CCCCCCCC(CCCCCCC)C(=O)OCCN(CCOC(=O)C(CCCCCCC)CCCCCCC)C(=O)C(N)Cc1ccccc1 (centres unmarked) [Compound 618]
